Results: PubChem BioAssay (NCI)
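A five-concentration, 48-hour dose response in 96-well plates underlies each endpoint, interpolated linearly between surrounding concentrations. TGI: total growth inhibition.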

How the values were obtained:
Assay in all cases: NCI tumour cell line growth inhibition, 48 h
OVCAR-4 ovarian = test system: OVCAR-4 ovarian
UO-31 renal = test system: UO-31 renal
NCI-H23 lung = test system: NCI-H23 lung
HOP-62 NSCLC = test system: HOP-62 NSCLC
MALME-3M melanoma = test system: MALME-3M melanoma
HL-60(TB) leukemia = test system: HL-60(TB) leukemia
PC-3 prostate = test system: PC-3 prostate
MOLT-4 leukemia = test system: MOLT-4 leukemia
COLO 205 colon = test system: COLO 205 colon
SN12C renal = test system: SN12C renal
DU-145 prostate = test system: DU-145 prostate
HCT-15 colon = test system: HCT-15 colon
EKVX NSCLC = test system: EKVX NSCLC
MDA-MB-231 breast = test system: MDA-MB-231 breast
SF-295 CNS = test system: SF-295 CNS
NCI-H522 lung = test system: NCI-H522 lung
BT-549 breast = test system: BT-549 breast
UACC-257 melanoma = test system: UACC-257 melanoma
OVCAR-8 ovarian = test system: OVCAR-8 ovarian

| SMILES | TGI (OVCAR-4 ovarian) | TGI (UO-31 renal) | TGI (NCI-H23 lung) | TGI (HOP-62 NSCLC) | TGI (MALME-3M melanoma) | TGI (HL-60(TB) leukemia) | TGI (PC-3 prostate) | TGI (MOLT-4 leukemia) | TGI (COLO 205 colon) | TGI (SN12C renal) | TGI (DU-145 prostate) | TGI (HCT-15 colon) | TGI (EKVX NSCLC) | TGI (MDA-MB-231 breast) | TGI (SF-295 CNS) | TGI (NCI-H522 lung) | TGI (BT-549 breast) | TGI (UACC-257 melanoma) | TGI (OVCAR-8 ovarian) |
| --- | --- | --- | --- | --- | --- | --- | --- | --- | --- | --- | --- | --- | --- | --- | --- | --- | --- | --- | --- |
| O=[N+]([O-])c1ccc(-c2nnc(C34CC5CC(CC(C5)C3)C4)o2)cc1 | > 100 µM | > 100 µM | > 100 µM | > 100 µM | > 100 µM | > 100 µM | > 100 µM | > 100 µM | > 100 µM | > 100 µM | > 100 µM | > 100 µM | > 100 µM | > 100 µM | > 100 µM | > 100 µM | – | – | – |
| NC(=O)N/N=C1\CCCCc2ccccc21 | > 10 µM | > 10 µM | > 10 µM | > 10 µM | > 10 µM | – | > 10 µM | > 10 µM | > 10 µM | > 10 µM | > 10 µM | > 10 µM | > 10 µM | > 10 µM | – | > 10 µM | > 10 µM | > 10 µM | > 10 µM |
| CCOC(=O)C(=[N+]=[N-])C(=O)C1(C(=O)OCC)CCN(C(=O)c2ccccc2)C1=O (stereo not given) | > 100 µM | > 100 µM | > 100 µM | > 100 µM | > 100 µM | > 100 µM | > 100 µM | > 100 µM | > 100 µM | > 100 µM | > 100 µM | > 100 µM | > 100 µM | > 100 µM | > 100 µM | > 100 µM | – | > 100 µM | > 100 µM |
| CC12CCC(CC1=O)C2(C)CCC(N)=O (stereo not given) | > 100 µM | > 100 µM | > 100 µM | > 100 µM | > 100 µM | – | > 100 µM | > 100 µM | > 100 µM | > 100 µM | > 100 µM | > 100 µM | > 100 µM | > 100 µM | > 100 µM | > 100 µM | > 100 µM | > 100 µM | > 100 µM |
| COc1ccc(/C=C2\NC(=S)N(CN3CCCCC3)C2=O)cc1 | 78.8 µM | > 100 µM | > 100 µM | > 100 µM | > 100 µM | – | > 100 µM | > 100 µM | 85.6 µM | > 100 µM | > 100 µM | > 100 µM | > 100 µM | > 100 µM | > 100 µM | > 100 µM | – | – | 50 µM |
| COc1cc(OC)c2c(c1)C(=O)C(CC(C)O)=CC2=O (stereo not given) | 31.9 µM | 29.9 µM | 34.9 µM | 33.6 µM | 37.3 µM | 21.8 µM | – | 41.8 µM | 32.6 µM | 32.6 µM | – | 27.7 µM | 26.2 µM | – | 27.4 µM | 30.9 µM | – | 30.7 µM | 29.5 µM |
| ONc1ncnc2nc[nH]c12 | > 100 µM | > 100 µM | > 100 µM | > 100 µM | > 100 µM | > 100 µM | – | > 100 µM | > 100 µM | – | – | > 100 µM | – | – | > 100 µM | > 100 µM | – | > 100 µM | > 100 µM |
| CCOC(=O)N/N=C(/OCC)c1ccccc1 | > 100 µM | > 100 µM | > 100 µM | > 100 µM | > 100 µM | > 100 µM | – | > 100 µM | > 100 µM | > 100 µM | > 100 µM | > 100 µM | > 100 µM | > 100 µM | > 100 µM | > 100 µM | > 100 µM | > 100 µM | > 100 µM |
| Cc1c(/C=N/NC(=O)c2cc(Br)cc(Br)c2O)c(=O)n(-c2ccccc2)n1C | > 100 µM | > 100 µM | > 100 µM | > 100 µM | > 100 µM | 5.97 µM | – | > 100 µM | > 100 µM | > 100 µM | – | > 100 µM | > 100 µM | – | > 100 µM | > 100 µM | – | > 100 µM | > 100 µM |
| COc1cccc(N=Cc2cc3cc(Br)ccc3nc2Cl)c1 | 2.63 µM | > 50 µM | > 50 µM | > 50 µM | > 50 µM | > 50 µM | > 50 µM | > 50 µM | > 50 µM | > 50 µM | > 50 µM | > 50 µM | > 50 µM | – | > 50 µM | > 50 µM | > 50 µM | > 50 µM | > 50 µM |
| CCOP(=O)(OCC)C1CC(O)C(=O)N1 (stereo not given) | > 100 µM | > 100 µM | > 100 µM | > 100 µM | > 100 µM | – | > 100 µM | > 100 µM | > 100 µM | > 100 µM | > 100 µM | > 100 µM | > 100 µM | > 100 µM | > 100 µM | – | – | > 100 µM | > 100 µM |
| O=C(/C=C/c1ccccc1)/C=N/N1C(=S)N(c2ccccc2)C(=Nc2ccccc2)C1=Nc1ccccc1 | – | > 100 µM | > 100 µM | > 100 µM | > 100 µM | – | > 100 µM | > 100 µM | > 100 µM | > 100 µM | > 100 µM | > 100 µM | > 100 µM | > 100 µM | > 100 µM | 62.9 µM | > 100 µM | > 100 µM | > 100 µM |
| N#CCc1nc2ccccc2c(=O)[nH]1 | > 100 µM | > 100 µM | > 100 µM | > 100 µM | – | > 100 µM | > 100 µM | > 100 µM | > 100 µM | > 100 µM | > 100 µM | > 100 µM | > 100 µM | > 100 µM | > 100 µM | – | – | > 100 µM | > 100 µM |
| C[n+]1c2ccccc2c(C(=O)Nc2ccc(S(=O)(=O)Nc3ccnn3-c3ccccc3)cc2)c2ccccc21 | > 100 µM | > 100 µM | > 100 µM | > 100 µM | > 100 µM | – | > 100 µM | > 100 µM | > 100 µM | > 100 µM | > 100 µM | > 100 µM | > 100 µM | > 100 µM | > 100 µM | – | > 100 µM | > 100 µM | > 100 µM |
